Results from ChEMBL document CHEMBL1149922, “Novel tryptophan dioxygenase inhibitors and combined tryptophan dioxygenase/5-HT reuptake inhibitors” (Bioorg Med Chem Lett, 1996).

What was measured:
[1] = molecular target: Tryptophan 2,3-dioxygenase (Rattus norvegicus, UniProt P21643); experiment: Compound was tested for inhibition of Tryptophan dioxygenase (TDO) from rat liver
Rattus norvegicus = species on record: Rattus norvegicus; experiment: Inhibition of 5-HT reuptake in rat […] was measured; assay type: functional, organism-based

Tryptophan 2,3-dioxygenase, sequence (P21643 whole entry): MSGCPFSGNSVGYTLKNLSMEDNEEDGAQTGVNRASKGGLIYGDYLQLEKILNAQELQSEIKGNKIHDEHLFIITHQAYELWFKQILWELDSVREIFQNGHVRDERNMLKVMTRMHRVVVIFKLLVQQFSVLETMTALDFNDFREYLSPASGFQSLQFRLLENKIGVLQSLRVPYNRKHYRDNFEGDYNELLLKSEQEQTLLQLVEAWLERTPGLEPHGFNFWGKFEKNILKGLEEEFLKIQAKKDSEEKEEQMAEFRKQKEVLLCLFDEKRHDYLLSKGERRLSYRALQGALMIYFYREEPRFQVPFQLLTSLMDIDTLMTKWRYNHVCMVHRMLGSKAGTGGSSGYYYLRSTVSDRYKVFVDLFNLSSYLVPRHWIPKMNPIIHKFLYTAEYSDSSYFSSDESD

Row | SMILES | Ki [1] | IC50 (Rattus norvegicus)
1 | Fc1ccc2[nH]cc(/C=C/c3cccnc3)c2c1 | 50 nM | –
2 | C(=C\c1c[nH]c2ccccc12)/c1ccccn1 | 100 nM | –
3 | Fc1ccc2[nH]cc(/C=C/c3ccncc3)c2c1 | 40 nM | –
4 | C(=C\c1c[nH]c2ccccc12)/c1ccncc1 | 30 nM | 1500 nM
5 | Fc1ccc2c(/C=C/c3ccncc3)c[nH]c2c1 | 30 nM | 900 nM
6 | C(=C\c1c[nH]c2ccccc12)/c1cccnc1 | 40 nM | –
7 | Fc1ccc2c(/C=C/c3cccnc3)c[nH]c2c1 | 30 nM | –
